Test results from patent US20220313707A1 (priority 2021, published 2022).

Tested on: influenza A Hp1N1 virus
Parameters: species or system mice
Conditions: mouse, in vivo

SMILES | 14 d survival rate | Mean days of survival | Survival number (pcs.) | Survival rate (%)
CC1(C)C(=O)N(c2ccc(C#N)c(C(F)(F)F)c2F)C(=S)N1c1ccc(CCCc2ncco2)nc1 [Proxalutamide] | 40% | 11.0 ± 2.83 days | 4 pcs. | 40%
CC1(C)C(=O)N(c2ccc(C#N)c(C(F)(F)F)c2)C(=S)N1c1ccc(OC[C@@H](O)CO)cc1 [SHR-3680] | 50% | 11.3 ± 2.87 days | 5 pcs. | 50%
